Data published in PubChem BioAssay AID248 (DTP/NCI, 2004).
Where “and” joins values, the source holds several entries; their conditions need not be identical. Equal values may be shown once. Toxic doses and inconclusive results are not listed. Peptide text beside a SMILES is read from it. * marks the point of attachment. Cbz = O=C(OCc1ccccc1)*; OtBu = CC(C)(C)O*

System: L1210 leukemia ip in BDF1 mice, survival T/C
Assay: NCI In Vivo Anticancer Drug Screen. Data for tumor model L1210 Leukemia (intraperitoneal) in B6D2F1 (BDF1) mice
Details: endpoint: mean survival time, higher = longer survival
In short: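 In this screen, tumor-bearing mice given compound are compared to those given vehicle, and their survival values are reported as a treated-to-control quotient.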

[1] = dose: 100.0 mg/kg/injection, schedule: Q04DX002 (ip), vehicle: saline with Tween-80
[2] = dose: 200.0 mg/kg/injection, schedule: Q04DX002 (ip), vehicle: saline with Tween-80
[3] = dose: 400.0 mg/kg/injection, schedule: Q04DX002 (ip), vehicle: saline with Tween-80
[4] = dose: 100.0 mg/kg/injection, schedule: Q01DX001 (ip), vehicle: saline
[5] = dose: 200.0 mg/kg/injection, schedule: Q01DX001 (ip), vehicle: saline
[6] = dose: 50.0 mg/kg/injection, schedule: Q01DX001 (ip), vehicle: saline
[7] = dose: 400.0 mg/kg/injection, schedule: Q01DX001 (ip), vehicle: saline
[8] = dose: 100.0 mg/kg/injection, schedule: Q01DX009 (ip), vehicle: Klucel (hydroxypropylcellulose) (HPC)
[9] = dose: 100.0 mg/kg/injection, schedule: Q04DX003 (ip), vehicle: saline
[10] = dose: 200.0 mg/kg/injection, schedule: Q04DX003 (ip), vehicle: saline
[11] = dose: 400.0 mg/kg/injection, schedule: Q04DX003 (ip), vehicle: saline
[12] = dose: 100.0 mg/kg/injection, schedule: Q01DX009 (ip), vehicle: saline with Tween-80
[13] = dose: 200.0 mg/kg/injection, schedule: Q01DX009 (ip), vehicle: saline with Tween-80
[14] = dose: 400.0 mg/kg/injection, schedule: Q01DX009 (ip), vehicle: saline with Tween-80
[15] = dose: 100.0 mg/kg/injection, schedule: Q04DX003 (ip), vehicle: saline with Tween-80
[16] = dose: 200.0 mg/kg/injection, schedule: Q04DX003 (ip), vehicle: saline with Tween-80
[17] = dose: 400.0 mg/kg/injection, schedule: Q04DX003 (ip), vehicle: saline with Tween-80

`CC1=CC(=O)[C@@H](O)[C@]2(C)[C@H]3[C@@]4(O)OC[C@]35[C@H]([C@@H](C)[C@H]4O)[C@@H](OC(=O)c3ccccc3)C(=O)O[C@@H]5C[C@@H]12` was tested, and the T/C (dose: 0.25 mg/kg/injection, schedule: Q01DX009 (ip), vehicle: saline with Tween-80) was 102 % of control, the T/C (dose: 0.5 mg/kg/injection, schedule: Q01DX009 (ip), vehicle: saline with Tween-80) was 103 % of control and the T/C (dose: 1.0 mg/kg/injection, schedule: Q01DX009 (ip), vehicle: saline with Tween-80) was 103 % of control. For the same molecule, the T/C (dose: 2.0 mg/kg/injection, schedule: Q01DX009 (ip), vehicle: saline with Tween-80) was 108 % of control and the T/C (dose: 4.0 mg/kg/injection, schedule: Q01DX009 (ip), vehicle: saline with Tween-80) was 111 % of control.
`COc1ccc(-n2c(=O)c(N=Nc3ccc(Br)cc3)c(O)n(-c3ccc(I)cc3)c2=S)cc1` was tested, and the T/C (dose: 50.0 mg/kg/injection, schedule: Q01DX001 (ip), vehicle: Klucel (hydroxypropylcellulose) (HPC)) was 103 % of control, the T/C (dose: 100.0 mg/kg/injection, schedule: Q01DX001 (ip), vehicle: Klucel (hydroxypropylcellulose) (HPC)) was 100 % of control and the T/C (dose: 200.0 mg/kg/injection, schedule: Q01DX001 (ip), vehicle: Klucel (hydroxypropylcellulose) (HPC)) was 91 % of control.
For `Cc1ccc(SP(=O)(Sc2ccc(C)cc2)Sc2ccc(C)cc2)cc1`, the T/C [1] was 97 % of control, the T/C [2] was 97 % of control and the T/C [3] was 97 % of control.
In the case of `CC[N+](CC)(CC)CCOc1cccc(OCC[N+](CC)(CC)CC)c1OCC[N+](CC)(CC)CC`, the T/C (dose: 5.0 mg/kg/injection, schedule: Q01DX001 (ip), vehicle: saline) is reported as 95 % of control and the T/C (dose: 10.0 mg/kg/injection, schedule: Q01DX001 (ip), vehicle: saline) is reported as 98 % of control.
`O=NN(CCCl)C(=O)N[C@@H]1CCCC[C@H]1NC(=O)N(CCCl)N=O` was tested, and the T/C (dose: 25.0 mg/kg/injection, schedule: Q01DX001 (ip), vehicle: carboxymethylcellulose (CMC)) was 180 % of control, the T/C (dose: 37.5 mg/kg/injection, schedule: Q01DX001 (ip), vehicle: carboxymethylcellulose (CMC)) was 165 % of control and the T/C (dose: 50.0 mg/kg/injection, schedule: Q01DX001 (ip), vehicle: carboxymethylcellulose (CMC)) was 215 % of control. For the same molecule, the T/C (dose: 75.0 mg/kg/injection, schedule: Q01DX001 (ip), vehicle: carboxymethylcellulose (CMC)) was 260 % of control, the T/C [4] was 233 % of control and the T/C (dose: 150.0 mg/kg/injection, schedule: Q01DX001 (ip), vehicle: carboxymethylcellulose (CMC)) was 308 % of control. The T/C [5] was 106 % of control and the T/C (dose: 300.0 mg/kg/injection, schedule: Q01DX001 (ip), vehicle: saline) was 89 % of control.
In the case of `COC(=O)c1ccc2c(ccc[n+]2C)c1`, the T/C (dose: 37.5 mg/kg/injection, schedule: Q04DX003 (ip), vehicle: saline with Tween-80) is reported as 96 % of control, the T/C (dose: 75.0 mg/kg/injection, schedule: Q01DX001 (ip), vehicle: saline) is reported as 97 % of control and the T/C (dose: 75.0 mg/kg/injection, schedule: Q04DX003 (ip), vehicle: saline with Tween-80) is reported as 96 % of control. The T/C (dose: 150.0 mg/kg/injection, schedule: Q01DX001 (ip), vehicle: saline) was 90 % of control and the T/C (dose: 150.0 mg/kg/injection, schedule: Q04DX003 (ip), vehicle: saline with Tween-80) was 89 % of control.
For `Nc1ccc(C(=O)Nc2ccc(NC(=O)Nc3ccc(NC(=O)c4ccc(N)cc4)c(S(=O)(=O)O)c3)cc2S(=O)(=O)O)cc1`, the T/C (dose: 60.0 mg/kg/injection, schedule: Q01DX Z (ip), vehicle: carboxymethylcellulose (CMC)) was 96 % of control, the T/C (dose: 120.0 mg/kg/injection, schedule: Q01DX Z (ip), vehicle: carboxymethylcellulose (CMC)) was 98 % of control and the T/C (dose: 240.0 mg/kg/injection, schedule: Q01DX Z (ip), vehicle: carboxymethylcellulose (CMC)) was 95 % of control. For the same molecule, the T/C (dose: 240.0 mg/kg/injection, schedule: Q01DX Z (oral), vehicle: carboxymethylcellulose (CMC)) was 106 % of control, the T/C (dose: 480.0 mg/kg/injection, schedule: Q01DX Z (ip), vehicle: carboxymethylcellulose (CMC)) was 95 % of control and the T/C (dose: 480.0 mg/kg/injection, schedule: Q01DX Z (oral), vehicle: carboxymethylcellulose (CMC)) was 112 % of control. For the same molecule, the T/C (dose: 960.0 mg/kg/injection, schedule: Q01DX Z (oral), vehicle: carboxymethylcellulose (CMC)) was 93 % of control.
For `O=C1CCCC(=O)NNC(=O)Nc2ccc(cc2)-c2ccc(cc2)NC(=O)NN1`, the T/C [6] was 104 % of control, the T/C [4] was 104 % of control and the T/C [7] was 96 % of control.
With `O=C(Nc1cccc(F)c1)Nc1nccs1` the T/C (dose: 25.0 mg/kg/injection, schedule: Q01DX009 (ip), vehicle: Klucel (hydroxypropylcellulose) (HPC)) was 89 % of control, the T/C (dose: 50.0 mg/kg/injection, schedule: Q01DX009 (ip), vehicle: Klucel (hydroxypropylcellulose) (HPC)) was 99 % of control and the T/C [8] was 95 % of control and 97 % of control.
`CCC(O)(COC(N)=O)c1ccccc1` (configuration not stated) was tested, and the T/C (dose: 100.0 mg/kg/injection, schedule: Q01DX001 (ip), vehicle: carboxymethylcellulose (CMC)) was 97 % of control, the T/C (dose: 200.0 mg/kg/injection, schedule: Q01DX001 (ip), vehicle: carboxymethylcellulose (CMC)) was 108 % of control and the T/C (dose: 400.0 mg/kg/injection, schedule: Q01DX001 (ip), vehicle: carboxymethylcellulose (CMC)) was 94 % of control.
With `Cc1cc(N)on1` the T/C (dose: 100.0 mg/kg/injection, schedule: Q01DX009 (ip), vehicle: saline) was 97 % of control, the T/C [9] was 96 % of control and the T/C (dose: 200.0 mg/kg/injection, schedule: Q01DX009 (ip), vehicle: saline) was 106 % of control. For the same molecule, the T/C [10] was 101 % of control, the T/C (dose: 400.0 mg/kg/injection, schedule: Q01DX009 (ip), vehicle: saline) was 88 % of control and the T/C [11] was 123 % of control.
In the case of `O=C1C2CC=CCC2C(=O)C2CC=CCC12` (configuration not stated), the T/C [12] is reported as 99 % of control, the T/C [13] is reported as 93 % of control and the T/C [14] is reported as 90 % of control.
For `O=C1Nc2ccc3c(c2/C1=C\c1cc2c(cc1Br)OCO2)OCO3`, the T/C (dose: 50.0 mg/kg/injection, schedule: Q01DX001 (ip), vehicle: alcohol) was 93 % of control, the T/C (dose: 100.0 mg/kg/injection, schedule: Q01DX001 (ip), vehicle: alcohol) was 93 % of control and the T/C (dose: 200.0 mg/kg/injection, schedule: Q01DX001 (ip), vehicle: alcohol) was 98 % of control. The T/C (dose: 400.0 mg/kg/injection, schedule: Q01DX001 (ip), vehicle: alcohol) was 96 % of control.
`O=C(O)C1CSC2(CCCCC2)N1` (configuration not stated) was tested, and the T/C [9] was 93 % of control, the T/C [10] was 98 % of control and the T/C [11] was 89 % of control.
With `Cc1ccc(Cl)cc1NC(=O)Nc1cccc2c(O)cccc12` the T/C (dose: 100.0 mg/kg/injection, schedule: Q01DX001 (ip), vehicle: saline with Tween-80) was 100 % of control, the T/C [12] was 90 % of control and 92 % of control and the T/C [1] was 94 % of control and 87 % of control. The T/C [15] was 88 % of control, the T/C (dose: 200.0 mg/kg/injection, schedule: Q01DX001 (ip), vehicle: saline with Tween-80) was 89 % of control and the T/C [13] was 103 % of control and 90 % of control. For the same molecule, the T/C [2] was 97 % of control and 89 % of control, the T/C [16] was 98 % of control and the T/C (dose: 400.0 mg/kg/injection, schedule: Q01DX001 (ip), vehicle: saline with Tween-80) was 98 % of control. The T/C [14] was 95 % of control, the T/C [3] was 94 % of control and 95 % of control and the T/C [17] was 101 % of control.
`NC(CC1CCCCC1)C(=O)O` (configuration not stated) was tested, and the T/C (dose: 100.0 mg/kg/injection, schedule: Q04DX002 (ip), vehicle: Klucel (hydroxypropylcellulose) (HPC)) was 91 % of control, the T/C (dose: 200.0 mg/kg/injection, schedule: Q04DX002 (ip), vehicle: Klucel (hydroxypropylcellulose) (HPC)) was 88 % of control and the T/C (dose: 400.0 mg/kg/injection, schedule: Q04DX002 (ip), vehicle: Klucel (hydroxypropylcellulose) (HPC)) was 91 % of control.
`CC(C)Cc1nc2c([nH]1)c(=O)n(C)c(=O)n2C` was tested, and the T/C [6] was 96 % of control, the T/C [4] was 104 % of control and the T/C [5] was 98 % of control.
For `COC(=O)C(CCC(=O)OC(C)(C)C)NC(=O)C(NC(=O)OCc1ccccc1)C(C)C` (stereo not drawn) (Cbz-Val-Glu(OtBu)-OMe; configuration not given here), the T/C [12] was 98 % of control, the T/C [15] was 92 % of control and the T/C [13] was 89 % of control. For the same molecule, the T/C [16] was 95 % of control, the T/C [14] was 98 % of control and the T/C [17] was 95 % of control.
In the case of `CCCCCCCCCCCCCCCCCCNC(=O)Cc1ccc(N(CCCl)CCCl)cc1`, the T/C [8] is reported as 94 % of control and the T/C (dose: 200.0 mg/kg/injection, schedule: Q01DX009 (ip), vehicle: Klucel (hydroxypropylcellulose) (HPC)) is reported as 95 % of control.
For `CC1CN(C=O)CCN1C=O` (configuration not stated), the T/C [4] was 98 % of control, the T/C [5] was 98 % of control and the T/C [7] was 101 % of control.
